Test results as given in ChEMBL document CHEMBL4715887, “Synthesis of novel isoflavone/benzo-δ-sultam hybrids as potential anti-inflammatory drugs” (Bioorg Med Chem Lett, 2021).
Calls of active or inactive are those of the source. No cut-off for these calls is given here.

Assays:
BV-2 [1] = assay: Cytotoxicity against mouse BV2 cells assessed as reduction in cell viability at 20 uM after 24 hrs by XTT assay; assay type: cell-based; settings: bv-2, 24 h
BV-2 [2] = assay: Antiinflammatory activity in mouse BV2 cells assessed as reduction in LPS-induced NO-production at 20 uM after 24 hrs by Griess reagent based assay relative to control; assay type: functional
[3] = Cytotoxicity against mouse BV2 cells assessed as cell viability at 20 uM after 24 hrs by XTT assay relative to control; assay type: cell-based, BV-2; settings: read-out: Activity
BV-2 [4] = assay: Antiinflammatory activity in mouse BV2 cells assessed as LPS-induced NO-production at 20 uM after 24 hrs by Griess reagent based assay relative to control; assay type: functional
BV-2 [5] = assay: Antiinflammatory activity in mouse BV2 cells assessed as LPS-induced TNFalpha-production at 20 uM after 24 hrs by Griess reagent based assay relative to control; assay type: functional

Structure (SMILES) | Activity (BV-2 [1]) | inhibition at 20 µM (BV-2 [2]) [%] | viability at 24 h, 20 µM [3] [%] | inhibition (BV-2 [2]) | Activity (BV-2 [4]) [%] | Activity (BV-2 [5])
O=c1c(-c2ccc(O)cc2)coc2cc(O)ccc12 [DAIDZEIN] | Non-Toxic | 35 | > 80 | – | – | –
O=S(=O)(Nc1ccccc1)c1ccccc1Br | Non-Toxic | – | – | – | – | –
COc1ccc2c(=O)c(C#Cc3ccccc3S(=O)(=O)Nc3ccccc3)coc2c1 | Toxic | – | – | Active | – | –
COc1ccc2c(=O)c(-c3ccc(N4C(c5ccccc5)=Cc5ccccc5S4(=O)=O)cc3)coc2c1 | Toxic | – | – | Active | – | –
C#Cc1coc2cc(OC)ccc2c1=O | – | – | 49 | – | – | –
COc1ccc2c(=O)c(C3=Cc4ccccc4S(=O)(=O)N3c3ccccc3)coc2c1 | Non-Toxic | – | – | Active | – | –
CNS(=O)(=O)c1ccccc1I | Non-Toxic | – | – | – | – | –
COc1ccc2c(=O)c(-c3ccc(NS(=O)(=O)c4ccccc4Br)cc3)coc2c1 | Non-Toxic | – | – | Active | 26 | –
COc1ccc2c(=O)c(C3=Cc4ccccc4S(=O)(=O)N3C)coc2c1 | Non-Toxic | – | – | Active | – | –
COc1ccc(CN2C(c3coc4cc(OC)ccc4c3=O)=Cc3ccccc3S2(=O)=O)cc1 | Non-Toxic | – | – | Active | 41 | 34%
COc1ccc(-c2coc3cc(O)cc(O)c3c2=O)cc1 [BIOCHANIN] | Non-Toxic | 41 | 76 | – | – | 33%
COc1ccc2c(=O)c(-c3ccc(NS(=O)(=O)c4ccccc4C#Cc4ccccc4)cc3)coc2c1 | Non-Toxic | – | – | Active | – | –
COc1ccc2c(=O)c(-c3ccc(N)cc3)coc2c1 | Non-Toxic | – | – | – | 42 | Active
COc1ccc2c(=O)c(C3=Cc4ccccc4S(=O)(=O)N3)coc2c1 | Toxic | – | – | Active | 24 | –
COc1ccc2c(=O)c(C#C[Si](C)(C)C)coc2c1 | Non-Toxic | – | – | Active | 21 | –
COc1ccc(CNS(=O)(=O)c2ccccc2I)cc1 | Non-Toxic | – | – | – | – | –
O=S(=O)(Nc1ccccc1)c1ccccc1I | Non-Toxic | – | – | – | – | –
COc1ccc2c(=O)c(-c3ccc([N+](=O)[O-])cc3)coc2c1 | Non-Toxic | – | – | inactive | – | –
COc1ccc(CNS(=O)(=O)c2ccccc2C#Cc2coc3cc(OC)ccc3c2=O)cc1 | – | – | – | Active | – | –
CNS(=O)(=O)c1ccccc1Br | Non-Toxic | – | – | – | – | –
COc1ccc2c(=O)c(I)coc2c1 | Non-Toxic | – | – | – | 21 | 26%
